A word on the EC50: it is the concentration at which the effect is half-maximal. What is called AC50 is the midpoint of the concentration-response curve, whichever way the signal moves. One may read the IC50 as the concentration that gives 50% inhibition. A word on the CC50: it is the concentration at which the toxic effect on the cells reaches its halfway point.

The target of one assay is Hexokinase-1 (Homo sapiens, UniProt P19367). As to the kind of experiment: HK1 enzyme activation by HKDC1 hits – biochemical, selectivity assay for HKDC1 activator project, dose response (AID 504762). The format is functional.
Chain of Hexokinase-1 (P19367 whole entry): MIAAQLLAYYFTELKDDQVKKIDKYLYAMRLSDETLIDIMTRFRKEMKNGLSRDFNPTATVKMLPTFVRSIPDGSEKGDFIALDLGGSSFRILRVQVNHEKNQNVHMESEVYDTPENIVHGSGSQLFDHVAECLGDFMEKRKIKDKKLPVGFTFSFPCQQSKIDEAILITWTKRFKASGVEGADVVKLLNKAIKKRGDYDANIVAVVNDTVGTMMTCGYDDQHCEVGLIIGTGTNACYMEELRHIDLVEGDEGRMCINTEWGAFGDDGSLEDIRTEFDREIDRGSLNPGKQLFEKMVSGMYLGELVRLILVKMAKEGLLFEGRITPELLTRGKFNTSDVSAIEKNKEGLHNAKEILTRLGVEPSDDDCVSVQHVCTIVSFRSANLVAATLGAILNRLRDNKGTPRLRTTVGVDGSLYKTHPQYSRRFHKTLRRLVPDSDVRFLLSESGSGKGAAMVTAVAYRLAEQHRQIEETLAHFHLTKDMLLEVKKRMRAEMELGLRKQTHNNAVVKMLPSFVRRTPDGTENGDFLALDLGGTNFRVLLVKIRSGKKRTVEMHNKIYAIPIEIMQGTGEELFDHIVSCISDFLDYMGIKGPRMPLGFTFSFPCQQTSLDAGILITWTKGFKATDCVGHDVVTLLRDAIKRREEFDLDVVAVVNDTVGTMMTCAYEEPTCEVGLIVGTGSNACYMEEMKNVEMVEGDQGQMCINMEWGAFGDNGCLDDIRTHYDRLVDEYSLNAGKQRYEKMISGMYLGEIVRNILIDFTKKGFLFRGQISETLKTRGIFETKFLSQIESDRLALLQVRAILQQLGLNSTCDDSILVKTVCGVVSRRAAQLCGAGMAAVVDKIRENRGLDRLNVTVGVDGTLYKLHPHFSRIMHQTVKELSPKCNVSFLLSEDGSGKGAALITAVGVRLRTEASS
In another assay the target is T1, Hexokinase HKDC1 (Homo sapiens, UniProt Q2TB90).
T1 sequence (Q2TB90 whole entry): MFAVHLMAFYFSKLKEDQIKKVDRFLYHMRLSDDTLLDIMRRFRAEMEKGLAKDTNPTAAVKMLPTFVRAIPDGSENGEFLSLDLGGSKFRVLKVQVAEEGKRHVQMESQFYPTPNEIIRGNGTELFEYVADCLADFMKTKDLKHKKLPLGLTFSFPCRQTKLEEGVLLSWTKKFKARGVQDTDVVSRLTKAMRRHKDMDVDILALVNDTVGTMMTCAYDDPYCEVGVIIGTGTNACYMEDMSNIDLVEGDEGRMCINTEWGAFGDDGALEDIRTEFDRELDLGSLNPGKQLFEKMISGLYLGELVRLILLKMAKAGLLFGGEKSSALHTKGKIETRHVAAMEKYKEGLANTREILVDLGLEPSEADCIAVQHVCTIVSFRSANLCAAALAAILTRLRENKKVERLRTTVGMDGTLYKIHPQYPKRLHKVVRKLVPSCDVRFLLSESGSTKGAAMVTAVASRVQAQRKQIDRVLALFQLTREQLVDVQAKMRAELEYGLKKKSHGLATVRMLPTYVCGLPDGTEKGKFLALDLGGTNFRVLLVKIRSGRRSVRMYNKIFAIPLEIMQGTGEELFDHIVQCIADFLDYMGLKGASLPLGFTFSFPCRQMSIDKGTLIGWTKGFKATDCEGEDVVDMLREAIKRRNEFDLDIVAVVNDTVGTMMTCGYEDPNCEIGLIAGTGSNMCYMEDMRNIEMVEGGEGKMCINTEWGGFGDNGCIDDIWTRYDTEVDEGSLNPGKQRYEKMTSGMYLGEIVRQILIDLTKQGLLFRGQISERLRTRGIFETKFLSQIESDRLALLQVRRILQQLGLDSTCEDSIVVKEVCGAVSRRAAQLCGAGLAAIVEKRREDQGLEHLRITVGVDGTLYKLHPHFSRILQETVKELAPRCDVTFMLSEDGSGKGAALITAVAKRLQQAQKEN
Nature of the assay: activation of HKDC1 glucose phosphorylation – biochemical, W721R variant, dose response (AID 504730). The assay is classed as functional.

The subject of another assay is INS1. As to the kind of experiment: INS-1E survival protection against cytokine death – cell-based, luminescence, retest, dose response (AID 449756).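 Note: cell death triggered by IL-1 beta plus TNF-alpha plus IFN-gamma mixture; protective hits raise ATP signal compared with cytokine alone wells.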 The format is functional. The settings on record: Rattus norvegicus.
The target of assay [1] is T2, Replicative DNA helicase DnaB (Mycobacterium tuberculosis, UniProt P9WMR3).
T2 sequence (P9WMR3 whole entry): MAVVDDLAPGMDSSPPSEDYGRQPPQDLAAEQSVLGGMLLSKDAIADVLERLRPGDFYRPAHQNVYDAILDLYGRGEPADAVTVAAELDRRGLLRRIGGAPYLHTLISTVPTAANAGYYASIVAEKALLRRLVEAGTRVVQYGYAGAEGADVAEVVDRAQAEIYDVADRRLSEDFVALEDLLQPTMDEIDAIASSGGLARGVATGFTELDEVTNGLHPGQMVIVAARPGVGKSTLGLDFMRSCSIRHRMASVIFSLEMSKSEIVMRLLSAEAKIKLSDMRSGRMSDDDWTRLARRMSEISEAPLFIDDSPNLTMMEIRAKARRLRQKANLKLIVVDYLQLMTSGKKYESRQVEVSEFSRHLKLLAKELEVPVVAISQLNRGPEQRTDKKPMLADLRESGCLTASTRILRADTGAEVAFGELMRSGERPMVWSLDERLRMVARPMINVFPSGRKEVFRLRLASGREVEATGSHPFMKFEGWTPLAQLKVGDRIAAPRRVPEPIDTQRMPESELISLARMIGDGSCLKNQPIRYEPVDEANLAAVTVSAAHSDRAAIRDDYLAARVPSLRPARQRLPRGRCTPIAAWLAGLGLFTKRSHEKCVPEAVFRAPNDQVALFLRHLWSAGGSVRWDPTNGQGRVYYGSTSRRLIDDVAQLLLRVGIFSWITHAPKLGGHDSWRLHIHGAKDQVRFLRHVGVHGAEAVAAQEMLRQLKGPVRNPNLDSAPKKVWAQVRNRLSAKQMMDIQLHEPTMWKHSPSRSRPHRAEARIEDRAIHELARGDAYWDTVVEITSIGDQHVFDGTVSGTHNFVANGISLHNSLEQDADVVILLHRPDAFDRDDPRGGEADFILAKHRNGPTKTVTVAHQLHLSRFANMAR
As to the kind of experiment: DnaB intein splicing inhibitors, dose response, biochemical, cell-free fluorescence (AID 449749). The format is functional.

Assay [2] concerns the target Neuropeptide Y receptor type 2 (Homo sapiens, UniProt P49146). The format is functional, cell-based.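 Note: HEK293 cells expressing the receptor and a CNG channel; stimulus was NPY near EC95 followed by isoproterenol to raise cAMP; antagonist potency measured as restoring cAMP signal that NPY suppresses.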
For assay [3], the target named is Neuropeptide Y receptor type 1 (Homo sapiens, UniProt P25929). The assay is classed as functional.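 Note: HEK293 cells with a CNG channel challenged with NPY then isoproterenol; potency as antagonist that reverses NPY suppression of cAMP signal.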
Chain of Neuropeptide Y receptor type 1 (P25929 whole entry): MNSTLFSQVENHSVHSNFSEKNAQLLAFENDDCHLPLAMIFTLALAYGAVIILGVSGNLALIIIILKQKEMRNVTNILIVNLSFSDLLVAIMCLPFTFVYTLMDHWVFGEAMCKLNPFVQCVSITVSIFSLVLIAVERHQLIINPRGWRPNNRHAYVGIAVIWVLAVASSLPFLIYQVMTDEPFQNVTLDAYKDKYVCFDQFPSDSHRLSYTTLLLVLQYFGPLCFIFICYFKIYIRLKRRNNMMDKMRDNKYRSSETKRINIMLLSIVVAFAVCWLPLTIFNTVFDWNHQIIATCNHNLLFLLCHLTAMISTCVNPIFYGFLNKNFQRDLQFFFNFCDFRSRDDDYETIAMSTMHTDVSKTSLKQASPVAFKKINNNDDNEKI
The target of a further assay is T3, Protein RecA (Mycobacterium tuberculosis, UniProt P9WHJ3).
T3 sequence (P9WHJ3 whole entry): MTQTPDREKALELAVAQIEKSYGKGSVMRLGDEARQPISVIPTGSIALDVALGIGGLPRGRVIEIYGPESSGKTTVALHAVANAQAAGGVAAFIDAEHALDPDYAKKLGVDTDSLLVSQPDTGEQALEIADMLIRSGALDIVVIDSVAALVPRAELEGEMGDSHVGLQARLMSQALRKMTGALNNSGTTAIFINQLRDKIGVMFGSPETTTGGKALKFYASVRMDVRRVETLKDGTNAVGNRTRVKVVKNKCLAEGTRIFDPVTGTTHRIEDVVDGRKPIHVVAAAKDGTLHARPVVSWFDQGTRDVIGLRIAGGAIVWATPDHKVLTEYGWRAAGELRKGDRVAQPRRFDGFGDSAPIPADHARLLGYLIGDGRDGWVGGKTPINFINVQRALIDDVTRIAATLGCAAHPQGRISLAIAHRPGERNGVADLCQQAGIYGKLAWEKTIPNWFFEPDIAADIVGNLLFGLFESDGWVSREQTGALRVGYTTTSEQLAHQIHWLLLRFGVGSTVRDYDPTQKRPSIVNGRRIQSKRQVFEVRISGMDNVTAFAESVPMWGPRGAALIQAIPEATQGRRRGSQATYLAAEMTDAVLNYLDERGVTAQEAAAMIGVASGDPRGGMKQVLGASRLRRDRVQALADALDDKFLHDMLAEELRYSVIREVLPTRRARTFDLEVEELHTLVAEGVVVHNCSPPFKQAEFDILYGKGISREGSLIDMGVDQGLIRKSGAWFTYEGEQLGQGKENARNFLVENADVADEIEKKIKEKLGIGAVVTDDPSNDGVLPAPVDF
As to the kind of experiment: Fluorescence Cell-Free Homogeneous Dose Retest to Identify Inhibitors of RecA-Intein Splicing Activity. [Related pubchem assays (depositor defined):AID2097, AID2223, AID489010, AID492950]. The assay is classed as functional.

Assay [4] is described as follows: Intein inhibitors as potential Tuberculosis drugs, a cytotoxicity screen. [Related pubchem assays (depositor defined):AID2221, AID2223, AID434968, AID435010, AID449749, AID449750, AID489010]. The format is functional.
Assay [5] addresses Lysine-specific demethylase 4C (Homo sapiens, UniProt Q9H3R0). As to the kind of experiment: inhibition of JMJD2C H3K9me3 demethylation – biochemical, DELFIA europium, cherry-picked samples, dose response (AID 488835). The assay is classed as functional.
The target in a further assay is Nonstructural protein 1 (Influenza A virus, UniProt Q194T2). The assay is classed as functional, Influenza A virus (A/California/07/2009(H1N1)).
Chain of Nonstructural protein 1 (Q194T2 whole entry): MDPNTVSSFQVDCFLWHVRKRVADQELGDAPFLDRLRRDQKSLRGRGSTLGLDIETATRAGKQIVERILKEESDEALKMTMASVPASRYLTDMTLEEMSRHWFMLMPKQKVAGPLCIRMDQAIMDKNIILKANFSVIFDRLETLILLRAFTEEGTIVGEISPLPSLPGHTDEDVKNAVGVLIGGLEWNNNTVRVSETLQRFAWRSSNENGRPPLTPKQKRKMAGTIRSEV
In a further assay the target is T4, Bcl-2-related protein A1 (Mus musculus, UniProt Q07440).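 Note: confirmatory dose–response counterscreen on Bfl-1, used to check hits from a UBC13 polyubiquitin inhibitor campaign.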
T4 sequence (Q07440 whole entry): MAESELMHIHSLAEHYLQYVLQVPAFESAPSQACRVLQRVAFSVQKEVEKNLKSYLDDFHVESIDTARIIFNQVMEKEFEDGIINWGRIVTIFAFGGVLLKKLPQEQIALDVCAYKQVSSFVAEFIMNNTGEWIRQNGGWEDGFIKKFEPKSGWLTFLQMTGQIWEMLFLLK
The format is functional.

Assay [6] has as its target T5, Ubiquitin-conjugating enzyme E2 N (Homo sapiens, UniProt P61088).
T5 sequence (P61088 whole entry): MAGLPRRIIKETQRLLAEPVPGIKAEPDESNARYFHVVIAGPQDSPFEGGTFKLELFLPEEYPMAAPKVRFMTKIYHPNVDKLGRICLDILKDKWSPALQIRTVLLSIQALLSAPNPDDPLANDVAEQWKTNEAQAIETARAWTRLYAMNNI
The assay is classed as functional.

The target of assay [7] is T5, Ubiquitin-conjugating enzyme E2 N. The assay is classed as functional. This is another data set of the same source.
Assay [8] can be described thus: HGIII-sPLA2 enzyme inhibition potency – biochemical, QFRET, IC50, dose response (AID 743457).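 Note: green fluorescence rise as the enzyme cleaves BODIPY PC-A2 in liposomes.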

The source made the active and inactive calls. Some results are limits rather than exact numbers.
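Throughout, for CC50: cells exposed to compound for 72 hours before luminescence readout.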

Chain of Neuropeptide Y receptor type 2 (P49146 whole entry): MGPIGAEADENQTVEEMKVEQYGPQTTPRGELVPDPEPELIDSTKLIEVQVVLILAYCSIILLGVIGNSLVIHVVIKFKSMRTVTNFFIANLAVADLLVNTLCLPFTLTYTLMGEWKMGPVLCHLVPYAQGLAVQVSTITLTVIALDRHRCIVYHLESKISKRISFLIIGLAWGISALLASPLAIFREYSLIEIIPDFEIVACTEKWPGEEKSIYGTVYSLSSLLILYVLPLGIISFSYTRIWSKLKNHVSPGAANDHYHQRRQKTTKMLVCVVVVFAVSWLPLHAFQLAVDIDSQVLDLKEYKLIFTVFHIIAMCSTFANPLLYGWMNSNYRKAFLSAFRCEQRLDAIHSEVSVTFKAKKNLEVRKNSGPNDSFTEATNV
Chain of Lysine-specific demethylase 4C (Q9H3R0 whole entry): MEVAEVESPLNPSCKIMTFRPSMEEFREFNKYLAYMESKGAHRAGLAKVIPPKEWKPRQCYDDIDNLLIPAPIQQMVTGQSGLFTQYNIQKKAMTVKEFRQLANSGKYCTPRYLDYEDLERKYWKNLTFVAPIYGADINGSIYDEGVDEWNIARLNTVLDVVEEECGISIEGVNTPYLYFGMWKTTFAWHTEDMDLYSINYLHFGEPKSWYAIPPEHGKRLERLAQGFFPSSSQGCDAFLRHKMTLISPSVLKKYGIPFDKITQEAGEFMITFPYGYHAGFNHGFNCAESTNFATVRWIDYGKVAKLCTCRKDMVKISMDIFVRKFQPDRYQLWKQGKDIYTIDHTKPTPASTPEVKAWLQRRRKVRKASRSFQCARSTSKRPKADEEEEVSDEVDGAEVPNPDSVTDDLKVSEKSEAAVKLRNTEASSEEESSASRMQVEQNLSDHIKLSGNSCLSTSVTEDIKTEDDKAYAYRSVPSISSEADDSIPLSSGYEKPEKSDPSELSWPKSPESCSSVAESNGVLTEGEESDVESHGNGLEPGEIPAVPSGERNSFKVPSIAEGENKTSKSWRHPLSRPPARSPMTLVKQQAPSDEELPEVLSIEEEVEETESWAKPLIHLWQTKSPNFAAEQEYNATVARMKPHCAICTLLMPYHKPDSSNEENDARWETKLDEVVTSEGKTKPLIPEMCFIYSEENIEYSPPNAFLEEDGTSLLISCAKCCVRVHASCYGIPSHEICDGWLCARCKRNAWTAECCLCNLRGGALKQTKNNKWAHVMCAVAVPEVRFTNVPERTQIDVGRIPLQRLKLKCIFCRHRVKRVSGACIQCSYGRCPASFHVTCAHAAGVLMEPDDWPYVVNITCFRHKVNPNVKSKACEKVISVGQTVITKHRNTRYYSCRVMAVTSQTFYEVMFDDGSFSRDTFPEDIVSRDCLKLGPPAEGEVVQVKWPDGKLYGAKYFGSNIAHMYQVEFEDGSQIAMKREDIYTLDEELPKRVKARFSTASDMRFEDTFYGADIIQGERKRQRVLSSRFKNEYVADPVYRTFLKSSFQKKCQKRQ

As for `Cc1ccccc1NC1=NN=C(c2ccccc2F)CS1`, the results for the EC50 on Hexokinase-1 and on Hexokinase HKDC1 were 53.2 µM (inactive) and 27 µM (inactive), respectively.

On to `COC(=O)c1c(C)oc2ccc(N(C(=O)c3ccncc3)S(=O)(=O)c3ccc4ccccc4c3)cc12`, for which the AC50 in the assay on INS1 was 12.9 µM (active); in [1], 4.46 µM (active). The IC50 in assay [2] was 7.94 µM (active); in assay [3], 4.84 µM (active). In addition, on Protein RecA, the 50% effective concentration (EC50) was 4.08 µM (active). In assay [4], the 50% cytotoxic concentration (CC50) was 36.5 µM (active).

Turning to `Cc1cccc(-n2cnc(C(=O)NN=C(S)Nc3ccccc3)c2)n1`, the AC50 in [5] is 5.67 µM (active). Moreover, the IC50 at Nonstructural protein 1 was 4.86 µM (active); at Bcl-2-related protein A1, > 20 µM (inactive); in [6], 14.8 µM (active); in assay [7] it was 6.96 µM (active); in assay [8] it was > 122 µM (inactive).

These data come from ChEMBL document CHEMBL1201862, “PubChem BioAssay data set” (2004).
